Source: patent US20160235069A1, “N-ACRYLIMINO HETEROCYCLIC COMPOUNDS” (BASF SE, priority 2013, published 2016)
Like-named read-outs stand apart in the source and are kept apart here.

What was measured:
Format in all cases: in vivo
Myzus persicae = test: Green peach aphid (Myzus persicae), systemic, artificial diet in 96-well plates; details: 72 h, read-out: mortality in comparison with untreated controls
Excerpt: General conditions: If not otherwise specified, most test solutions are to be prepared as follows: The active compound is to be dissolved at the desired concentration in a mixture of 1:1 (vol:vol) distilled water:acteon. Further, the test solutions are to be prepared at the day of use (and, if not otherwise specified, in general at concentrations wt/vol).
For evaluating control of green peach aphid (Myzus persicae) through systemic means, the test unit consists of 96-well-microtiter plates containing liquid artificial diet under an artificial membrane.
The compounds are formulated using a solution containing 75% v/v water and 25% v/v DMSO. Different concentrations of formulated compounds are pipetted into the aphid diet, using a custom built pipetter, at two replications.
After application, 5-8 adult aphids are placed on the artificial membrane inside the microtiter plate wells. The aphids are then allowed to suck on the treated aphid diet and incubated at about 23+1° C. and about 50+5% relative humidity for 3 days. Aphid mortality and fecundity is then visually assessed.

Megoura viciae = test: Vetch aphid (Megoura viciae), contact or systemic, broad bean leaf disks; details: foliar, 120 h, read-out: mortality in comparison with untreated controls
Procedure: For evaluating control of vetch aphid (Megoura viciae) through contact or systemic means the test unit consisted of 24-well-microtiter plates containing broad bean leaf disks.
The compounds were formulated using a solution containing 75% v/v water and 25% v/v DMSO. Different concentrations of formulated compounds were sprayed onto the leaf disks at 2.5 μl, using a custom built micro atomizer, at two replications.
After application, the leaf disks were air-dried and 5-8 adult aphids were placed on the leaf disks inside the microtiter plate wells. The aphids were then allowed to suck on the treated leaf disks and were incubated at about 23±1° C. and about 50±5% relative humidity for 5 days. Aphid mortality and fecundity was then visually assessed.

Aphis craccivora = test: Cowpea aphid (Aphis craccivora), sprayed potted cowpea plants; details: 72 h, read-out: mortality in comparison with untreated controls
Procedure: The active compound is dissolved at the desired concentration in a mixture of 1:1 (vol:vol) distilled water: acetone. Surfactant (Alkamuls® EL 620) is added at a rate of 0.1% (vol/vol). The test solution is prepared at the day of use.
Potted cowpea plants are colonized with approximately 50-100 aphids of various stages by manually transferring a leaf tissue cut from infested plant 24 hours before application. Plants are sprayed after the pest population has been recorded. Treated plants are maintained on light carts at about 28° C. Percent mortality is assessed after 72 hours.

Anthonomus grandis = test: Boll weevil (Anthonomus grandis), insect diet with eggs in 96-well plates; details: 120 h, read-out: mortality in comparison with untreated controls
Procedure: For evaluating control of boll weevil (Anthonomus grandis) the test unit consisted of 96-well-microtiter plates containing an insect diet and 5-10 A. grandis eggs.
The compounds were formulated using a solution containing 75% v/v water and 25% v/v DMSO. Different concentrations of formulated compounds were sprayed onto the insect diet at 5 μl, using a custom built micro atomizer, at two replications.
After application, microtiter plates were incubated at about 25±1° C. and about 75±5% relative humidity for 5 days. Egg and larval mortality was then visually assessed.

Nephotettix virescens = test: Rice green leafhopper (Nephotettix virescens), sprayed rice seedlings; details: read-out: mortality in comparison with untreated controls
Procedure: (§1) Rice seedlings are cleaned and washed 24 hours before spraying. The active compounds are formulated in 50:50 acetone:water (vol:vol), and 0.1% vol/vol surfactant (EL 620) is added. Potted rice seedlings are sprayed with 5 ml test solution, air dried, placed in cages and inoculated with 10 adults. Treated rice plants are kept at about 28-29° C. and relative humidity of about 50-60%. Percent mortality is recorded after 72 hours.

Plutella xylostella = test: Diamond back moth (Plutella xylostella), dipped cabbage leaves; details: 3rd instar larvae on dipped cabbage leaves, 72 hours after treatment, read-out: mortality in comparison with untreated controls
Procedure: The active compound is dissolved at the desired concentration in a mixture of 1:1 (vol:vol) distilled water: acetone. Surfactant (Kinetic HV) is added at a rate of 0.01% (vol/vol). The test solution is prepared at the day of use.
Leaves of cabbage were dipped in test solution and air-dried. Treated leaves were placed in petri dishes lined with moist filter paper and inoculated with ten 3rd instar larvae. Mortality was recorded 72 hours after treatment. Feeding damages were also recorded using a scale of 0-100%.

Aphis gossypii = test: Cotton aphid (Aphis gossypii), sprayed potted plants; details: 72 h, read-out: mortality in comparison with untreated controls
Dichromothrips corbetti = test: Orchid thrips (Dichromothrips corbetti), floral-immersion technique; details: 72 h, read-out: mortality in comparison with untreated controls
Procedure: Dichromothrips corbetti adults used for bioassay are obtained from a colony maintained continuously under laboratory conditions. For testing purposes, the test compound is diluted in a 1:1 mixture of acetone:water (vol:vol), plus 0.01% vol/vol Alkamuls® EL 620 surfactant.
Thrips potency of each compound is evaluated by using a floral-immersion technique. Plastic petri dishes are used as test arenas. All petals of individual, intact orchid flowers are dipped into treatment solution and allowed to dry. Treated flowers are placed into individual petri dishes along with about 20 adult thrips. The petri dishes are then covered with lids. All test arenas are held under continuous light and a temperature of about 28° C. for duration of the assay. After 3 days, the numbers of live thrips are counted on each flower, and along inner walls of each petri dish. The percent mortality is recorded 72 hours after treatment.

Nilaparvata lugens = test: Rice brown plant hopper (Nilaparvata lugens), sprayed rice seedlings; details: 72 h, read-out: mortality in comparison with untreated controls
Procedure: as §1, with “compounds is” for “compounds are”, “acetone:water (vol:vol)” for “acetone:water (vol:vol),”, “620) was” for “620) is”

CC(C)(C)C/C=C(\C#N)C(=O)/N=c1\ccccn1Cc1ccc(Cl)nc1 [Compound E1.28]
≥ 75%: mortality at 2500 ppm (Myzus persicae) | mortality at 2500 ppm (Megoura viciae) | mortality at 500 ppm (Aphis craccivora) | mortality at 2500 ppm (Anthonomus grandis)

C=C(F)C(=O)/N=c1\ccccn1Cc1cnn(C)c1 [Compound E1.16]
≥ 75%: mortality at 2500 ppm (Myzus persicae; 2500 ppm, adult aphids on treated diet, 3 days) | mortality at 2500 ppm (Megoura viciae; 2500 ppm, adult aphids on sprayed leaf disks, 5 days) | mortality at 500 ppm (Nephotettix virescens; 500 ppm, adults on sprayed rice seedlings, after 72 hours) | mortality at 500 ppm (Plutella xylostella)

C=C(F)C(=O)/N=c1\ccccn1Cc1ccc(Cl)nc1 [Compound E1.3]
≥ 75%: mortality at 2500 ppm (Myzus persicae) | mortality at 2500 ppm (Megoura viciae) | mortality at 500 ppm (Aphis gossypii) | mortality at 500 ppm (Aphis craccivora) | mortality at 500 ppm (Dichromothrips corbetti) | mortality at 500 ppm (Nephotettix virescens; 72 h) | mortality at 500 ppm (Nilaparvata lugens)
